Data: patent US20200375987A1, “METALLO-BETA-LACTAMASE INHIBITORS AND METHODS OF USE THEREOF” (priority 2018, published 2020)

How the values were obtained:
[1] = target: NDM-1 (Klebsiella pneumoniae, UniProt C7C422); test: Enzyme activity: determination of IC50, fluorescence assay with CCF2-FA substrate (NDM-1); format: biochemical; details: 1 pM enzyme, 1.25 μM CCF2-FA, 2 hours at 25° C.; read-out: NDM1 IC50
Method: (§1) The Class B enzyme activities were measured in the presence of the test inhibitor in a fluorescence assay against a commercially available substrate consisting of a cephalosporin core linking 7-hydroxycoumarin to fluorescein (CCF2-FA). The enzyme (NDM-1, IMP-1 or VIM-1) and the substrate were diluted in 100 mM KH2PO4 buffer (pH 7) containing 0.005% Tween-20 and 10 μM ZnSO4. In the assay, the final concentration of enzyme was 1 pM, 2 pM and 30 pM for NDM-1, IMP-1 and VIM-1, respectively, and the final concentration of CCF2-FA was 1.25 μM. The test inhibitor was dissolved in dimethylsulfoxide and diluted 1:50 in the assay, resulting in a final concentration range of 20 μM to 0.00063 μM. In a 384-well microplate, the test inhibitor was incubated with the metallo-β-lactamase enzyme and the substrate for 2 hours at 25° C. Fluorescence at 460 nm following excitation at 405 nm was measured. The IC50 value was determined from semi-logarithmic plots of enzyme inhibition versus inhibitor concentration, with a curve generated using a 4-parameter fit.

[2] = test system: Escherichia coli expressing NDM-1 (CLB30016); test: Antibiotic potentiation activity: synergistic concentration (MITC95) with imipenem; format: cell-based; details: imipenem 1 μg/mL; lowest concentration inhibiting 95% of growth; 35° C., 22-24 hours
Method: (§2) The bacterial strains tested included the clinical strains Escherichia coli expressing NDM-1 (CLB30005, CLB30016), Serratia marcescens expressing IMP-1 (CL5741), and Klebsiella pneumoniae expressing VIM-1 (IHMA599644). Inhibitor activity was measured in the presence and absence of imipenem in a 384-well microplate.
(§3) The clinical strains CLB30016, CL5741 and IHMA599644 were grown on trypticase soy agar containing 5% sheep's blood. The bacteria on agar plates were incubated at 35° C. with humidity overnight. The following day, individual colonies from each clinical strain were picked and resuspended in 5 mL saline to attain an OD600 of 0.14, 0.11, 0.15 and 0.13, for CLB30016, CL5741 and IHMA599644, respectively. These were further diluted 1:100 into 1.1× CAMHB and used to inoculate the test wells as described below.
(§4) Imipenem in 10 mM 3-(N-morpholino)propanesulfonic acid (MOPS, pH 7) was stored in single use aliquots at −80° C. […] On the day of the assay, 4 μl of antibiotic was added to 45 μl of bacteria followed by 1 μl of test compound and mixed by pipetting and with an orbital shaker. The concentration of antibiotic used in the assay was 1 μg/mL. Microplates were covered and incubated at 35° C. for 22 hours to 24 hours. At the end of the incubation, absorbance was determined using a spectrophotometer. The synergistic concentration of MBLI was determined by identifying the lowest concentration of test compound in the presence of a given concentration of antibiotic that was required to inhibit 95% of the growth of the bacteria. The results for Examples 1-209 are reported in Table 1, expressed as the concentration of compound that potentiated the action of antibiotic (imipenem) affecting 95% inhibition of bacterial growth (MITC95).

[3] = test system: Klebsiella pneumoniae expressing VIM-1 (IHMA599644); test: as above; format: cell-based; details: imipenem 1 μg/mL; lowest concentration inhibiting 95% of growth; 35° C., 22-24 hours
Method: as §2, §3, §4

[4] = test system: Serratia marcescens expressing IMP-1 (CL5741); test: as above; format: cell-based; details: imipenem 1 μg/mL; lowest concentration inhibiting 95% of growth; 35° C., 22-24 hours
Method: as §2, §3, §4

[5] = target: IMP-1 (Serratia marcescens, UniProt P52699); test: Enzyme activity: determination of IC50, fluorescence assay with CCF2-FA substrate (IMP-1); format: biochemical; details: 2 pM enzyme, 1.25 μM CCF2-FA, 2 hours at 25° C.; read-out: IMP1 IC50
Method: as §1

[6] = target: VIM-2 (Escherichia coli, UniProt Q5U7L7); test: Enzyme activity: determination of IC50 (VIM-2); format: biochemical; details: read-out: VIM2 IC50
[7] = target: VIM-1 (Pseudomonas aeruginosa, UniProt A0A0F7KYQ8); test: Enzyme activity: determination of IC50, fluorescence assay with CCF2-FA substrate (VIM-1); format: biochemical; details: 30 pM enzyme, 1.25 μM CCF2-FA, 2 hours at 25° C.; read-out: VIM1 IC50
Method: as §1

[8] = test system: P. aeruginosa MB9799 (efflux mutant, IMP-1); test: Efflux: concentration of MBL inhibitor restoring susceptibility to imipenem (MITC95), efflux− strain; format: cell-based, Pseudomonas aeruginosa; details: imipenem at 2 μg/mL in the presence of a class A, C, D serine β-lactamase inhibitor closely related to relebactam
Source text: (§5) In order to assess the contribution of efflux to lack of whole cell inhibition of metallo-beta-lactamase inhibitors of formula I, tool strains were constructed. The strain background is Pseudomonas aeruginosa PAO1. A wild-type (MB5919) and an isogenic strain in which multiple efflux pumps have been disrupted genetically were used. The MBL IMP-1, obtained from a clinical isolate was introduced into the strain pair by the following process:
(§6) Plasmid DNA (encoding IMP-1) was extracted from CL 5673 (IMP-1, P. aeruginosa clinical strain) by standard techniques. The plasmid DNA was transformed into parental MB5919 (oprD+, efflux+, inducible AmpC) and MB5890 (oprD+, efflux−, inducible AmpC) isogenic strains by electroporation. These transformed strains were plated onto cation-adjusted Muller-Hinton agar plates containing ceftazidime at 32 μg/mL (MB5919) and 16 μg/mL (MB5890) to select for those cells in which the IMP-1-expressing plasmid was introduced successfully, resulting in resistance to ceftazidime. Agarose-gel electrophoresis of PCR product for IMP-1 from the successful transformants was used to compare to control and to the original strain from which the plasmid was obtained, confirming transfer of the IMP-1 gene (data not shown).
(§7) The strain set was then used as a pair to determine the effect of metallo-β-lactamase inhibitors of Formula Ion the MIC of imipenem and/or ceftazidime. A fixed concentration of antibiotic is included in standard microbroth MIC tests, usually at the CLSI breakpoint concentration. A fixed amount of a class A/C beta-lactamase inhibitor is also included to inhibit the resident Pseudomonas AmpC enzyme. A serial titration of the metallo-β-lactamase inhibitor was included and the concentration of metallo-β-lactamase inhibitor which restores susceptibility of the strain to the included antibiotic was recorded. That concentration of metallo-β-lactamase inhibitor was then compared between the two strains to determine the fold difference between the efflux+(MB9798) and efflux−(MB9799) strains, which indicates n the extent to which the MBLi is subject to efflux.

[9] = test system: P. aeruginosa MB9798 (efflux WT, IMP-1); test: Efflux: concentration of MBL inhibitor restoring susceptibility to imipenem (MITC95), efflux+ strain; format: cell-based, Pseudomonas aeruginosa; details: imipenem at 2 μg/mL in the presence of a class A, C, D serine β-lactamase inhibitor closely related to relebactam
Source text: as §5, §6, §7

Chain of NDM-1 (C7C422 29-270, looked up, species assumed): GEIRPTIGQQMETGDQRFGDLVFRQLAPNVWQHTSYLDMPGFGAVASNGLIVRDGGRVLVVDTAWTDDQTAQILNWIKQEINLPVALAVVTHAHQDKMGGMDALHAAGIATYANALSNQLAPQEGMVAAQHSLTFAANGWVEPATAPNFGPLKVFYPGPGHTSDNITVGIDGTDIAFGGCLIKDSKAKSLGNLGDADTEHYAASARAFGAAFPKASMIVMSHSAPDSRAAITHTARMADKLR
Chain of IMP-1 (P52699 19-246, looked up, species assumed): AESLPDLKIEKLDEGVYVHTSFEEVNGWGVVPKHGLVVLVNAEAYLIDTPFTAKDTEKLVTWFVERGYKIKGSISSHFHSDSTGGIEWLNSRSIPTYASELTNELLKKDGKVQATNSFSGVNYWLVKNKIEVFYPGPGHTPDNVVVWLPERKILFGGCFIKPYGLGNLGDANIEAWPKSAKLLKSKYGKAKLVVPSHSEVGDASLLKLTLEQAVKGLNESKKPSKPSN

SMILES	IC50 [1] [nM]	CLB30016 E.coli MITC95 NDM [2] [µM]	IHMA599644 K.pneumoniae MITC95 uM VIM [3] [µM]	CL5741 S.marcescens MITC95 uM IMP [4] [µM]	IC50 [5] [nM]	IC50 [6] [nM]	IC50 [7] [nM]	MB9799 MITC95 P. aeruginosa Efflux Mutant [8] [µM]	MB9798 MITC95 P. aeruginosa Efflux WT [9] [µM]
NS(=O)(=O)c1c(S(=O)(=O)N[C@@H]2CCNC2)ccc(N2CCc3ncccc32)c1-c1nnn[nH]1 [Example 34, 4-(2,3-dihydro-1H-pyrrolo[3,2-b]pyridin-1-yl)-N1-[(3R)-pyrrolidin-3-yl]-3-(1H-tetrazol-5-yl)benzene-1,2-disulfonamide]	0.29	0.39	3.13	1.56	5.21	0.81	0.25	1.56	12.50
NS(=O)(=O)c1c(S(=O)(=O)N[C@@H]2CCNC2)ccc(N2CCn3cncc3C2)c1-c1nn[nH]n1 [Example 2, (R)-4-(5,6-dihydroimidazo[1,5-a]pyrazin-7(8H)-yl)-N^1-(pyrrolidin-3-yl)-3-(2H-tetrazol-5-yl)benzene-1,2-disulfonamide]	0.3	0.20	1.56	0.78	2.01	0.68	0.16	0.78	3.13
NC[C@H](CO)NS(=O)(=O)c1ccc(N2CCCn3ccnc32)c(-c2nnn[nH]2)c1S(N)(=O)=O [Example 15, (R)-N1-(1-amino-3-hydroxypropan-2-yl)-4-(6,7-dihydroimidazo[1,2-a]pyrimidin-8(5H)-yl)-3-(1H-tetrazol-5-yl)benzene-1,2-disulfonamide]	2.35	0.20	1.56	0.39	8.9	2.66	1	0.78	3.13
NC[C@@H](O)CNS(=O)(=O)c1ccc(-n2ccnc2)c(-c2nn[nH]n2)c1S(N)(=O)=O [Example 41, (R)—N1-(3-amino-2-hydroxypropyl)-4-(1H-imidazol-1-yl)-3-(2H-tetrazol-5-yl)benzene-1,2-disulfonamide]	0.66	0.78	1.56	0.78	2.97	0.96	1.05	0.78	1.56
NC[C@@H](O)CNS(=O)(=O)c1ccc(N2CCc3nc(N)[nH]c3C2)c(-c2nn[nH]n2)c1S(N)(=O)=O [Example 3, (R)—N^1-(3-amino-2-hydroxypropyl)-4-(2-amino-3,4,6,7-tetrahydro-5H-imidazo[4,5-c]pyridin-5-yl)-3-(2H-tetrazol-5-yl)benzene-1,2-disulfonamide]	2.23	0.78	6.25	3.13	5.72	72.8	22.6	1.56	6.25
NC[C@H](O)CNS(=O)(=O)c1ccc(N2CCCn3ccnc32)c(-c2nnn[nH]2)c1S(N)(=O)=O [Example 18, (S)-N1-(3-amino-2-hydroxypropyl)-4-(6,7-dihydroimidazo[1,2-a]pyrimidin-8(5H)-yl)-3-(1H-tetrazol-5-yl)benzene-1,2-disulfonamide]	1.87	0.10	1.56	0.39	8.07	1.99	0.76	0.78	3.13
NS(=O)(=O)c1c(S(=O)(=O)N[C@@H]2CCNC2)ccc(N2CCc3cccnc3C2)c1-c1nnn[nH]1 [Example 23, 4-(5,8-dihydro-1,7-naphthyridin-7(6H)-yl)-N1-[(3R)-pyrrolidin-3-yl]-3-(1H-tetrazol-5-yl)benzene-1,2-disulfonamide]	24.3	3.13	12.50	12.50	43.9	39	21	6.25	50.00
NCCNS(=O)(=O)c1ccc(N2CCn3ccnc32)c(-c2nnn[nH]2)c1S(N)(=O)=O [Example 20, N1-(2-aminoethyl)-4-(2,3-dihydro-1H-imidazo[1,2-a]imidazol-1-yl)-3-(1H-tetrazol-5-yl)benzene-1,2-disulfonamide]	1.7	0.39	3.13	0.78	9.68	15.1	12.4	0.78	6.25
NS(=O)(=O)c1c(S(=O)(=O)N[C@@H]2CCNC2)ccc(N2CCn3nc(C(F)(F)F)nc3C2)c1-c1nn[nH]n1 [Example 4, (R)—N^1-(pyrrolidin-3-yl)-3-(2H-tetrazol-5-yl)-4-(2-(trifluoromethyl)-5,6-dihydro-[1,2,4]triazolo[1,5-a]pyrazin-7(8H)-yl)benzene-1,2-disulfonamide]	2.25	3.13	6.25	6.25	2.18	0.48	0.35	3.13	25.00
